Laboratory results taken from patent US10058550B2, “Methods of treating heart failure” (priority 2015, dated 2018).

target: human APJ receptor (Homo sapiens (Human), UniProt P35414); assay: biochemical; type: biochemical; conditions: read-out: Activity hAPJ SPA EC50 IP
Outline: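 Membranes from CHO cells stably expressing cloned human APJ were incubated with WGA SPA beads in 20 mM HEPES pH 7.5, 5 mM MgCl2, 0.1% BSA, 200 mM NaCl and 3 μM GDP. Reaction started with 0.2 nM [35S]GTPγS ± ligands, 90 min at RT. EC50 obtained by non-linear regression as mean of independent experiments.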

Chain of human APJ receptor (P35414 whole entry): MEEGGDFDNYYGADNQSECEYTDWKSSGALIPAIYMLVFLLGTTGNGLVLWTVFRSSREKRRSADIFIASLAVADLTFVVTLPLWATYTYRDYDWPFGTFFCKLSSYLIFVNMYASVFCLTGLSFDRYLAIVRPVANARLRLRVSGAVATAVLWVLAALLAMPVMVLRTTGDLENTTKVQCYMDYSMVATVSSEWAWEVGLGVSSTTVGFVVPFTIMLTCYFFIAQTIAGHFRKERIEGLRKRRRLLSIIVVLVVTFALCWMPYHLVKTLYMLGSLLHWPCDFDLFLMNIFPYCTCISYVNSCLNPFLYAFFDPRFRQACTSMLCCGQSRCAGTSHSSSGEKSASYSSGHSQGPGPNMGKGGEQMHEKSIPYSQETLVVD

Row | Structure (SMILES) | EC50
1 | COc1cccc(-c2nnc(NS(=O)(=O)[C@@H](C)[C@H](O)c3cnc(C)cn3)n2-c2c(OC)cccc2OC)n1 (single isomer, unassigned) [Example 578.0, (1R,2S)—N-(4-(2,6-dimethoxyphenyl)-5-(6-methoxy-2-pyridinyl)-4H-1,2,4-triazol-3-yl)-1-hydroxy-1-(5-methyl-2-pyrazinyl)-2-propanesulfonamide or (1S,2R)—N-(4-(2,6-dimethoxyphenyl)-5-(6-methoxy-2-pyridinyl)-4H-1,2,4-triazol-3-yl)-1-hydroxy-1-(5-methyl-2-pyrazinyl)-2-propanesulfonamide] | 2.7 nM
2 | COc1cccc(-c2nnc(NS(=O)(=O)[C@@H](C)[C@@H](O)c3ncc(C)cn3)n2-c2c(OC)cccc2OC)n1 (single isomer, unassigned) [Example 583.0] | 0.19 nM
3 | CCO[C@@H](c1ncc(Cl)cn1)[C@H](C)S(=O)(=O)Nc1nnc(-c2cncc(C)c2)n1-c1c(OC)cccc1OC (single isomer, unassigned) [Example 609.0] | 9.4 nM
4 | CCO[C@@H](c1ncc(Cl)cn1)[C@H](C)S(=O)(=O)Nc1nnc(-c2cncc(C)c2)n1-c1c(OC)cccc1OC (single isomer, unassigned) [Example 611.0] | 0.19 nM
5 | CCO[C@@H](c1ncc(Cl)cn1)[C@H](C)S(=O)(=O)Nc1nnc(-c2cncc(C)c2)n1-c1c(OC)cccc1OC (single isomer, unassigned) [Example 612.0] | 13 nM
6 | COc1cccc(OC)c1-n1c(NS(=O)(=O)[C@@H](C)[C@H](OC)c2ccc(F)cc2C#N)nnc1-c1cncc(C)c1 (single isomer, unassigned) [Example 623.0] | 130 nM
7 | COc1cccc(OC)c1-n1c(NS(=O)(=O)[C@@H](C)[C@@H](OC(C)C)c2ncc(C)cn2)nnc1-c1cccnc1 (single isomer, unassigned) [Example 627.0, (1R,2R)-N-(4-(2,6-dimethoxyphenyl)-5-(pyridin-3-yl)-4H-1,2,4-triazol-3-yl)-1-isopropoxy-1-(5-methylpyrimidin-2-yl)propane-2-sulfonamide or (1S,2S)-N-(4-(2,6-dimethoxyphenyl)-5-(pyridin-3-yl)-4H-1,2,4-triazol-3-yl)-1-isopropoxy-1-(5-methylpyrimidin-2-yl)propane-2-sulfonamide] | 1.1 nM
8 | COc1cccc(OC)c1-n1c(NS(=O)(=O)[C@@H](C)[C@@H](C)n2cc(C)cn2)nnc1-c1cncc(C)c1 (single isomer, unassigned) [Example 650.0] | 39 nM
9 | COc1cccc(OC)c1-n1c(NS(=O)(=O)[C@@H](C)[C@@H](C)n2cc(C)cn2)nnc1-c1cncc(C)c1 (single isomer, unassigned) [Example 651.0] | 85 nM
10 | COc1cccc(OC)c1-n1c(NS(=O)(=O)[C@@H](C)[C@@H](C)n2cc(C)cn2)nnc1-c1cncc(C)c1 (single isomer, unassigned) [Example 652.0] | 0.43 nM
11 | CCOc1cccc(OC)c1-n1c(NS(=O)(=O)[C@@H](C)[C@H](OC)c2ncc(C)cn2)nnc1-c1cccc(OC)n1 (single isomer, unassigned) [Example 664.0, (1R,2S,P)—N-(4-(2-ethoxy-6-methoxyphenyl)-5-(6-methoxy-2-pyridinyl)-4H-1,2,4-triazol-3-yl)-1-methoxy-1-(5-methyl-2-pyrimidinyl)-2-propanesulfonamide or (1R,2S,M)-N-(4-(2-ethoxy-6-methoxyphenyl)-5-(6-methoxy-2-pyridinyl)-4H-1,2,4-triazol-3-yl)-1-methoxy-1-(5-methyl-2-pyrimidinyl)-2-propanesulfonamide] | 0.31 nM
12 | COc1cnc([C@H](O)[C@@H](C)S(=O)(=O)Nc2nnc(-c3cccnc3)n2-c2c(OC)cccc2OC)cn1 (single isomer, unassigned) [Example 706.0, (1S,2R)-N-(4-(2,6-dimethoxyphenyl)-5-(3-pyridinyl)-4H-1,2,4-triazol-3-yl)-1-hydroxy-1-(5-methoxy-2-pyrazinyl)-2-propanesulfonamide or (1R,2S)-N-(4-(2,6-dimethoxyphenyl)-5-(3-pyridinyl)-4H-1,2,4-triazol-3-yl)-1-hydroxy-1-(5-methoxy-2-pyrazinyl)-2-propanesulfonamide] | 0.34 nM
13 | COc1ccnc(OC)c1-n1c(NS(=O)(=O)[C@@H](C)[C@H](OC)c2ccc(Cl)cn2)nnc1-c1cccnc1 (single isomer, unassigned) [Example 712.0] | 0.9 nM
14 | COc1cccc(OC)c1-n1c(NS(=O)(=O)[C@@H](C)[C@H](OC)C2CCC2)nnc1-c1cncc(C)c1 (single isomer, unassigned) [Example 719.0] | 44 nM
15 | COc1cccc(-c2nnc(NS(=O)(=O)[C@@H](C)[C@@H](O)C3CC(F)(F)C3)n2-c2c(OC)cccc2OC)n1 (single isomer, unassigned) [Example 720.0] | 35 nM
16 | COc1cccc(-c2nnc(NS(=O)(=O)[C@@H](C)[C@@H](O)C3CC(F)(F)C3)n2-c2c(OC)cccc2OC)n1 (single isomer, unassigned) [Example 722.0] | 1.7 nM
17 | COc1cccc(-c2nnc(NS(=O)(=O)[C@@H](C)[C@@H](O)C3CC(F)(F)C3)n2-c2c(OC)cccc2OC)n1 (single isomer, unassigned) [Example 723.0] | 2.5 nM
18 | COc1cccc(OC)c1-n1c(NS(=O)(=O)[C@@H](C)[C@H](OC)C2CC(C)(C)C2)nnc1-c1cncc(C)c1 (single isomer, unassigned) [Example 724.0] | 220 nM
19 | COc1cccc(OC)c1-n1c(NS(=O)(=O)[C@@H](C)[C@H](OC)C2CC(C)(C)C2)nnc1-c1cncc(C)c1 (single isomer, unassigned) [Example 725.0] | 36 nM
20 | COc1cccc(OC)c1-n1c(NS(=O)(=O)[C@@H](C)[C@H](OC)C2CC(C)(C)C2)nnc1-c1cncc(C)c1 (single isomer, unassigned) [Example 726.0] | 7.5 nM
21 | COc1cccc(OC)c1-n1c(NS(=O)(=O)[C@@H](C)[C@H](OC)C2CC(C)(C)C2)nnc1-c1cncc(C)c1 (single isomer, unassigned) [Example 727.0] | 200 nM
22 | COc1cccc(OC)c1-n1c(NS(=O)(=O)C[C@H](O)c2ncc(C)cn2)nnc1-c1cncc(C)c1 (single isomer, unassigned) [Example 729.0, (R)—N-(4-(2,6-dimethoxyphenyl)-5-(5-methylpyridin-3-yl)-4H-1,2,4-triazol-3-yl)-2-hydroxy-2-(5-methylpyrimidin-2-yl)ethanesulfonamide or (S)—N-(4-(2,6-dimethoxyphenyl)-5-(5-methylpyridin-3-yl)-4H-1,2,4-triazol-3-yl)-2-hydroxy-2-(5-methylpyrimidin-2-yl)ethanesulfonamide] | 1.5 nM
23 | COc1cccc(OC)c1-n1c(NS(=O)(=O)[C@H](C)[C@@H](O)c2cn3ccccc3n2)nnc1-c1cccnc1 (single isomer, unassigned) [Example 735.0, (1S,2R)—N-(4-(2,6-dimethoxyphenyl)-5-(pyridin-3-yl)-4H-1,2,4-triazol-3-yl)-1-hydroxy-1-(imidazo[1,2-a]pyridin-2-yl)propane-2-sulfonamide or (1R,2S)—N-(4-(2,6-dimethoxyphenyl)-5-(pyridin-3-yl)-4H-1,2,4-triazol-3-yl)-1-hydroxy-1-(imidazo[1,2-a]pyridin-2-yl)propane-2-sulfonamide] | 0.48 nM
24 | COc1cccc(OC)c1-n1c(NS(=O)(=O)[C@H](C)[C@@H](O)c2cn3ccccc3n2)nnc1-c1cccnc1 (single isomer, unassigned) [Example 736.0, (1S,2R)—N-(4-(2,6-dimethoxyphenyl)-5-(pyridin-3-yl)-4H-1,2,4-triazol-3-yl)-1-hydroxy-1-(imidazo[1,2-a]pyridin-2-yl)propane-2-sulfonamide or (1R,2S)—N-(4-(2,6-dimethoxyphenyl)-5-(pyridin-3-yl)-4H-1,2,4-triazol-3-yl)-1-hydroxy-1-(imidazo[1,2-a]pyridin-2-yl)propane-2-sulfonamide] | 19 nM
25 | COc1cccc(-c2nnc(NS(=O)(=O)[C@@H](C)[C@H](OC)c3ncc(C)cn3)n2-c2c(O)ncnc2OC)n1 (single isomer, unassigned) [Example 739.0, (1R,2S,M)-N-(4-(4-hydroxy-6-methoxypyrimidin-5-yl)-5-(6-methoxypyridin-2-yl)-4H-1,2,4-triazol-3-yl)-1-methoxy-1-(5-methylpyrimidin-2-yl)propane-2-sulfonamide or (1R,2S,P)-N-(4-(4-hydroxy-6-methoxypyrimidin-5-yl)-5-(6-methoxypyridin-2-yl)-4H-1,2,4-triazol-3-yl)-1-methoxy-1-(5-methylpyrimidin-2-yl)propane-2-sulfonamide] | 1.5 nM
26 | COc1cccc(-c2nnc(NS(=O)(=O)[C@@H](C)[C@H](OC)c3ncc(C)cn3)n2-c2c(O)ncnc2OC)n1 (single isomer, unassigned) [Example 740.0, (1R,2S,M)-N-(4-(4-hydroxy-6-methoxypyrimidin-5-yl)-5-(6-methoxypyridin-2-yl)-4H-1,2,4-triazol-3-yl)-1-methoxy-1-(5-methylpyrimidin-2-yl)propane-2-sulfonamide or (1R,2S,P)-N-(4-(4-hydroxy-6-methoxypyrimidin-5-yl)-5-(6-methoxypyridin-2-yl)-4H-1,2,4-triazol-3-yl)-1-methoxy-1-(5-methylpyrimidin-2-yl)propane-2-sulfonamide] | 56 nM
27 | COc1cnc([C@@H](OC(C)C)[C@@H](C)S(=O)(=O)Nc2nnc(-c3cncc(C)c3)n2-c2c(OC)cccc2OC)cn1 (single isomer, unassigned) [Example 742.0, (1R,2R)-N-(4-(2,6-dimethoxyphenyl)-5-(5-methylpyridin-3-yl)-4H-1,2,4-triazol-3-yl)-1-isopropoxy-1-(5-methoxypyrazin-2-yl)propane-2-sulfonamide or (1S,2S)-N-(4-(2,6-dimethoxyphenyl)-5-(5-methylpyridin-3-yl)-4H-1,2,4-triazol-3-yl)-1-isopropoxy-1-(5-methoxypyrazin-2-yl)propane-2-sulfonamide] | 35 nM
